# Results from patent publication US20230257396A1, “MACROCYCLES AND THEIR USE” (BLOSSOMHILL THERAPEUTICS, INC., priority 2020, published 2023).
# What was measured:
# Test in all cases: KINOMEscan kinase binding assay (Eurofins/DiscoveRx), % Ctrl
# [1] = target: T1, kinases (Homo sapiens, UniProt P00519, M351T); details: 1 μM; ABL1(M351T)-phosphorylated
# T1 construct: purchased Eurofins/DiscoveRx; host or cells: E. coli BL21-derived host (T7 phage display) for most kinases; HEK-293 for the rest
# Outline: (§1)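 Competition binding: DNA- or phage-tagged kinases (T7 phage in E. coli BL21, or HEK-293-expressed) with immobilized biotinylated ligand beads and test compound, 1 h at room temperature. Bead-bound kinase eluted and quantified by qPCR; % Ctrl = (compound − positive control)/(negative control − positive control) ×100 at a single compound concentration.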
# [2] = target: T2, kinases (Homo sapiens, UniProt P07949); details: 1 μM; RET
# T2 construct: purchased Eurofins/DiscoveRx; host or cells: E. coli BL21-derived host (T7 phage display) for most kinases; HEK-293 for the rest
# T2 sequence (P07949 29-1114): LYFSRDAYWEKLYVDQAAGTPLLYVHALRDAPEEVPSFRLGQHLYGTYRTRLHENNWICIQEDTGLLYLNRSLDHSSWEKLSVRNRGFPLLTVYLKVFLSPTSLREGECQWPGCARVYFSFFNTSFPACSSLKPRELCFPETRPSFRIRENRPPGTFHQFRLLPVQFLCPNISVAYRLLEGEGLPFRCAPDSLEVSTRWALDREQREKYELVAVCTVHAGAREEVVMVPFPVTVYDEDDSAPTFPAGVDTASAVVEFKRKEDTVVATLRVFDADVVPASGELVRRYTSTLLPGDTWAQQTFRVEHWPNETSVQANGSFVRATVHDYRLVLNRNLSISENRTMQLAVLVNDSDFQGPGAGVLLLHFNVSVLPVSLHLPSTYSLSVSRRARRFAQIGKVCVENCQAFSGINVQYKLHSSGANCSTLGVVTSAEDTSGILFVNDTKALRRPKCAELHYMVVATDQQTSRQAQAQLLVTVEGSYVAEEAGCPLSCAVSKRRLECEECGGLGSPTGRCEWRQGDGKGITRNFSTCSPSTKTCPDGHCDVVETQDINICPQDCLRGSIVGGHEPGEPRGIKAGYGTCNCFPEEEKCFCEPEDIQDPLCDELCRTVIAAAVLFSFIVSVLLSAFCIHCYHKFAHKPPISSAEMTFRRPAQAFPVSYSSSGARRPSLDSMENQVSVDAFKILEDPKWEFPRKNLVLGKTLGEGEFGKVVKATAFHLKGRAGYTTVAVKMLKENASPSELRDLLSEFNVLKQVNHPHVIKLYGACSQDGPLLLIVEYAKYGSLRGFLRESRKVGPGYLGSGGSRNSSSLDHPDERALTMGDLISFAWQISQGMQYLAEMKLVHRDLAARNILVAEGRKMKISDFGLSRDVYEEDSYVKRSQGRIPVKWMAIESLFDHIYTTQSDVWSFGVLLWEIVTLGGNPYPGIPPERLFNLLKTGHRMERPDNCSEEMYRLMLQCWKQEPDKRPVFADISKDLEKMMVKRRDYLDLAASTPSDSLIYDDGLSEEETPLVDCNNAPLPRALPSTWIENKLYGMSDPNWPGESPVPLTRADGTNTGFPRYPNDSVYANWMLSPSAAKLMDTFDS
# Outline: as §1
# [3] = target: T3, kinases (Homo sapiens, UniProt P07949, V804M); details: 1 μM; RET(V804M)
# T3 construct: purchased Eurofins/DiscoveRx; host or cells: E. coli BL21-derived host (T7 phage display) for most kinases; HEK-293 for the rest
# T3 sequence (P07949 29-1114 V804M): as the sequence (P07949 29-1114) above, with V776M counted along it
# Outline: as §1
# [4] = target: T4, kinases (Homo sapiens, UniProt P10721, A829P); details: 1 μM; KIT(A829P)
# T4 construct: purchased Eurofins/DiscoveRx; host or cells: E. coli BL21-derived host (T7 phage display) for most kinases; HEK-293 for the rest
# T4 sequence (P10721 26-976 A829P): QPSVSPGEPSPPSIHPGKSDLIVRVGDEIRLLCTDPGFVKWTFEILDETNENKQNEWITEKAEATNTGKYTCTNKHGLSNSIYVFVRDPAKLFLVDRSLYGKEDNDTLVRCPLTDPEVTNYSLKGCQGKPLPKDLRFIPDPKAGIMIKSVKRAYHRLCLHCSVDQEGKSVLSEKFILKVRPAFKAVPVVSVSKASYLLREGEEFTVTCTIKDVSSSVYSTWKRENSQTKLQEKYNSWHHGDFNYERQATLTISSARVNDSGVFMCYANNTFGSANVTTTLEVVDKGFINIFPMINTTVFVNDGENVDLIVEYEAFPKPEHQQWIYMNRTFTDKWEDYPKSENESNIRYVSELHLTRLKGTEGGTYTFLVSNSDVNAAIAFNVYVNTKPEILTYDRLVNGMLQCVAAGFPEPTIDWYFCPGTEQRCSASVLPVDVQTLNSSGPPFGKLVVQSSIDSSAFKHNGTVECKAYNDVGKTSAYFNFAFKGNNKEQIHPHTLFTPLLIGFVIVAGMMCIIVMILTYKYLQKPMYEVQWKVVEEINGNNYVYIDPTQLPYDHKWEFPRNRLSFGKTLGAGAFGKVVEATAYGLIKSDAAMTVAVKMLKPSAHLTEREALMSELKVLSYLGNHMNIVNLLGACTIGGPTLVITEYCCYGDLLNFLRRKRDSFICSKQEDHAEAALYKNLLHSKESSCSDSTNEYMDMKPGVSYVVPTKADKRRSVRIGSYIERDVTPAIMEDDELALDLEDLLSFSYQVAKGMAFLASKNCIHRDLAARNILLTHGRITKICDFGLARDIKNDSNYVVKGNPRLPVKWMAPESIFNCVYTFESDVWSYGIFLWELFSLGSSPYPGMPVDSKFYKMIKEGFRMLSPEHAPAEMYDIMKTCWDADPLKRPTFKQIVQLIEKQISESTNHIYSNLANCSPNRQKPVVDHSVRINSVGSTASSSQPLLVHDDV
# Outline: as §1
# [5] = target: T5, kinases (Homo sapiens, UniProt P10721, D816V); details: 1 μM; KIT(D816V)
# T5 construct: purchased Eurofins/DiscoveRx; host or cells: E. coli BL21-derived host (T7 phage display) for most kinases; HEK-293 for the rest
# T5 sequence (P10721 26-976 D816V): as the sequence (P10721 26-976 A829P) above, with D791V, P804A counted along it
# Outline: as §1
# [6] = target: T6, kinases (Homo sapiens, UniProt P10721, V559D); details: 1 μM; KIT(V559D)
# T6 construct: purchased Eurofins/DiscoveRx; host or cells: E. coli BL21-derived host (T7 phage display) for most kinases; HEK-293 for the rest
# T6 sequence (P10721 26-976 V559D): as the sequence (P10721 26-976 A829P) above, with V534D, P804A counted along it
# Outline: as §1
# [7] = target: T7, kinases (Homo sapiens, UniProt P16234); details: 1 μM; PDGFRA
# T7 construct: purchased Eurofins/DiscoveRx; host or cells: E. coli BL21-derived host (T7 phage display) for most kinases; HEK-293 for the rest
# T7 sequence (P16234 24-1089): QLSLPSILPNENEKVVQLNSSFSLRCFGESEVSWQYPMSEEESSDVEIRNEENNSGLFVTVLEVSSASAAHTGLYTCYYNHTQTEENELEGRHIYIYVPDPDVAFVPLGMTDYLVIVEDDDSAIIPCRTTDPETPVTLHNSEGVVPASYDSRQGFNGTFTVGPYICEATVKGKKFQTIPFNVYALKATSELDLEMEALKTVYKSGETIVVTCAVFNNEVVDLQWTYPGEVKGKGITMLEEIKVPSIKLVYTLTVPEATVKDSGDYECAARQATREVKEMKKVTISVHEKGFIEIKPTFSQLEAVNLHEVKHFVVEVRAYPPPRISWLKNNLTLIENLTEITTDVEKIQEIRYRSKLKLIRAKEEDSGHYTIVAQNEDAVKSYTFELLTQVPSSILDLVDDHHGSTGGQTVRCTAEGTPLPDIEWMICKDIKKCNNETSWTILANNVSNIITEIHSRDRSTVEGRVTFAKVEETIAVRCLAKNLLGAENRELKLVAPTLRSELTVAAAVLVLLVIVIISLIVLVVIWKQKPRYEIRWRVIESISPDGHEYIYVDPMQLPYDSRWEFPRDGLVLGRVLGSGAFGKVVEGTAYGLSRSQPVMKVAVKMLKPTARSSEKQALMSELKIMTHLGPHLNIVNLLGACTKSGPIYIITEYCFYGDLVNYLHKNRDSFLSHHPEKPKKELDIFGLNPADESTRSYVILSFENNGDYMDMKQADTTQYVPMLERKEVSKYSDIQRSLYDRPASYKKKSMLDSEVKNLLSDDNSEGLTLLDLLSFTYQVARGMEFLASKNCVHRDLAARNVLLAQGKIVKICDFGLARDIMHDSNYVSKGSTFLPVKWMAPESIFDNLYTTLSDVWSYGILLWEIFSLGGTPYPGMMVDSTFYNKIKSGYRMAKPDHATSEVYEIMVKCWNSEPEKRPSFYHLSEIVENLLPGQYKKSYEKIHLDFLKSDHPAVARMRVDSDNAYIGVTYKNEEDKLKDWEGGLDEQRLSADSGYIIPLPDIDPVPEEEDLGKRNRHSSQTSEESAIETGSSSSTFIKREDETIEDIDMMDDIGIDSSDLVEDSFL
# Outline: as §1
# [8] = target: T8, kinases (Homo sapiens, UniProt P17948); details: 1 μM; FLT1
# T8 construct: purchased Eurofins/DiscoveRx; host or cells: E. coli BL21-derived host (T7 phage display) for most kinases; HEK-293 for the rest
# T8 sequence (P17948 27-1338): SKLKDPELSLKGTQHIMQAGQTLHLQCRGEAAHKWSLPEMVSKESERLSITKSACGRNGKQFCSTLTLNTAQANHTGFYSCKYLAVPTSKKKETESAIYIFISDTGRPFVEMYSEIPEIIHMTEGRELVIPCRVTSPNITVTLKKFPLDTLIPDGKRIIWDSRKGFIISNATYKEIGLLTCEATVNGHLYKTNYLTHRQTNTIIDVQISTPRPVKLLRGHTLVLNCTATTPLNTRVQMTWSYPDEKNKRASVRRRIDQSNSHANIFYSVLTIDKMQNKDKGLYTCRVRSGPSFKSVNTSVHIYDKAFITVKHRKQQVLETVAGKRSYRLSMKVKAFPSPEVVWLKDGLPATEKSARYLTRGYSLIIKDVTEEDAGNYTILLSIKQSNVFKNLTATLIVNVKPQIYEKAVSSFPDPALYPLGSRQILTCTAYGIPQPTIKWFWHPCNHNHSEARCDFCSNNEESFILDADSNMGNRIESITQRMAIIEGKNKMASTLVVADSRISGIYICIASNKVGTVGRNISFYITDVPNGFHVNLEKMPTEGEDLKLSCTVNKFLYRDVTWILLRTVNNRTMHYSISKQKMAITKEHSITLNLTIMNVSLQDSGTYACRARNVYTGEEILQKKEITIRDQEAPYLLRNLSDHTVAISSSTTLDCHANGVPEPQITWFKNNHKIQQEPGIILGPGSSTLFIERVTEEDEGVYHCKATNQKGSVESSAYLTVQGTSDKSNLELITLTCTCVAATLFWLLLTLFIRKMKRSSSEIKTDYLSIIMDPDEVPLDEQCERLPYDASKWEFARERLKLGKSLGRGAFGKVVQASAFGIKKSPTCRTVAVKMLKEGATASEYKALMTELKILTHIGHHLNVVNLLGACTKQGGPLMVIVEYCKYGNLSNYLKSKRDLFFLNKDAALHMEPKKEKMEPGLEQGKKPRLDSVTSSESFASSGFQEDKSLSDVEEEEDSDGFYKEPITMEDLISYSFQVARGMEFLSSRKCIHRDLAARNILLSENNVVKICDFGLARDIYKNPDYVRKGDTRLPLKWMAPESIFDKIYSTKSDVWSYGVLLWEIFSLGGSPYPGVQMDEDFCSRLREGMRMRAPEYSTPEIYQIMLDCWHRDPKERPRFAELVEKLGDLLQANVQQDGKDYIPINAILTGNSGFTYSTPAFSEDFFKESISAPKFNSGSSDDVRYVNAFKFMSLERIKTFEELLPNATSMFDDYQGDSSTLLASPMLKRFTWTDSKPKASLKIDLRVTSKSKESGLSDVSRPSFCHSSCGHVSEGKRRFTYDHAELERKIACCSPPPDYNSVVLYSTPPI
# Outline: as §1
# [9] = target: T9, kinases (Homo sapiens, UniProt P36888, R834Q); details: 1 μM; FLT3(R834Q)
# T9 construct: purchased Eurofins/DiscoveRx; host or cells: E. coli BL21-derived host (T7 phage display) for most kinases; HEK-293 for the rest
# T9 sequence (P36888 27-993 R834Q): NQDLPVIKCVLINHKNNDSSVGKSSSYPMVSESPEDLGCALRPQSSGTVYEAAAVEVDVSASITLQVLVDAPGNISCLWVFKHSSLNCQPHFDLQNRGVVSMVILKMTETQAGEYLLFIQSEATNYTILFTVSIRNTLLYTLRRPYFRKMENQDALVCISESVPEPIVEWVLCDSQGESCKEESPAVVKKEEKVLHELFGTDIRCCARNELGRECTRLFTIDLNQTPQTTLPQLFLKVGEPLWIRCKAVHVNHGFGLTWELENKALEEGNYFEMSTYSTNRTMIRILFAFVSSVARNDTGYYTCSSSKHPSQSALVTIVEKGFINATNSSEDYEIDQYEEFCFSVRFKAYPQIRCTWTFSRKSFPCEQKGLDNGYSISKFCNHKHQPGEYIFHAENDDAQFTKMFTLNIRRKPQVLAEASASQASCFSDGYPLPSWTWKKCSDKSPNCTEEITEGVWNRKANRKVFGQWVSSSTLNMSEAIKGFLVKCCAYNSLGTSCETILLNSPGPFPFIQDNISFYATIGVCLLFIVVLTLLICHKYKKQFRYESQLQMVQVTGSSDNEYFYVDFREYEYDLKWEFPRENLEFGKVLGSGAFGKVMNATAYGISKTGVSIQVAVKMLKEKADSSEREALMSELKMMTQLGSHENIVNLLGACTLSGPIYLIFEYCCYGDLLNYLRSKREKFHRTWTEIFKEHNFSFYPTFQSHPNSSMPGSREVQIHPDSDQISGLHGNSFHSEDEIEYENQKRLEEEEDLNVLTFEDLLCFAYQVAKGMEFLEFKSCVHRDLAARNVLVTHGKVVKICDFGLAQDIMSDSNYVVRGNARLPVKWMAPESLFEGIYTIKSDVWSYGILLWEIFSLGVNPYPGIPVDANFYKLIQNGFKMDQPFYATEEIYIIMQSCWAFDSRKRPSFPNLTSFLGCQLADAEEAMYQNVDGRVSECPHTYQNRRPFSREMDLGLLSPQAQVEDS
# Outline: as §1
"% Ctrl, ABL1(M351T)-phosphorylated [1] [% Ctrl]","% Ctrl, RET [2] [% Ctrl]","% Ctrl, RET(V804M) [3] [% Ctrl]","% Ctrl, KIT(A829P) [4] [% Ctrl]","% Ctrl, KIT(D816V) [5] [% Ctrl]","% Ctrl, KIT(V559D) [6] [% Ctrl]","% Ctrl, PDGFRA [7] [% Ctrl]","% Ctrl, FLT1 [8] [% Ctrl]","% Ctrl, FLT3(R834Q) [9] [% Ctrl]",SMILES
39,83,55,86,84,93,89,85,68,"Cc1cc2c([nH]1)/C=C1\C(=O)Nc3ccc(cc31)-c1c(noc1C)COCCN(C)C2=O [Ex. 128, [3a(4)Z]-6,9,16-trimethyl-1,11-dihydro-2H,13H-1,17-(ethanediylidene)[1,4]oxazolo[4,3-m]dipyrrolo[3,2-f:3′,4′-i][1,4]oxazacyclopentadecine-3,8(5H,9H)-dione]"
98,94,51,100,76,97,95,46,39,"Cc1cc2c([nH]1)/C=C1\C(=O)Nc3ccc(cc31)CN(C)C(=O)COCCNC2=O [Ex.111, [17a(18)Z]-2,11-dimethyl-6,7,11,12-tetrahydro-1H-13,15-(ethanediylidene)dipyrrolo[3,2-f:3′,4′-i][1,4,14]oxadiazacyclohexadecine-4,10,17(5H,9H,16H)-trione]"
83,100,94,100,93,98,100,99,84,"Cc1cc2c([nH]1)/C=C1\C(=O)Nc3ccc(cc31)OCCOCCNC2=O [Ex. 129, [16a(17)Z]-2-methyl-6,7,9,10-tetrahydro-1H-12,14-(ethanediylidene)dipyrrolo[3,2-i:3′,4′-l][1,4,7]dioxazacyclopentadecine-4,16(5H,15H)-dione]"
